ChEMBL document CHEMBL1201862, “PubChem BioAssay data set” (2004)
Activity calls are given as the source filed them. For most assays here, no stated cut-off is given here; in the data, actives have a measured EC50 and inactives only a lower limit.

How the values were obtained:
[1] = molecular target: Genome polyprotein (dengue virus type 2, UniProt P29990); test: flavivirus cap methylation enzyme inhibition – biochemical, confirmation dose response, primary screen (AID 588689); type: functional
[2] = molecular target: T1, Streptokinase A (Streptococcus pyogenes serotype M1, UniProt P10520); test: viability-normalized secreted streptokinase activity reduction – plasminogen activation absorbance, OD405, dose response (AID 1914); type: functional, Streptococcus pyogenes M1 GAS;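 further: secreted streptokinase activity via plasminogen activation per viability signal from cell pellet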
T1 sequence (P10520 whole entry): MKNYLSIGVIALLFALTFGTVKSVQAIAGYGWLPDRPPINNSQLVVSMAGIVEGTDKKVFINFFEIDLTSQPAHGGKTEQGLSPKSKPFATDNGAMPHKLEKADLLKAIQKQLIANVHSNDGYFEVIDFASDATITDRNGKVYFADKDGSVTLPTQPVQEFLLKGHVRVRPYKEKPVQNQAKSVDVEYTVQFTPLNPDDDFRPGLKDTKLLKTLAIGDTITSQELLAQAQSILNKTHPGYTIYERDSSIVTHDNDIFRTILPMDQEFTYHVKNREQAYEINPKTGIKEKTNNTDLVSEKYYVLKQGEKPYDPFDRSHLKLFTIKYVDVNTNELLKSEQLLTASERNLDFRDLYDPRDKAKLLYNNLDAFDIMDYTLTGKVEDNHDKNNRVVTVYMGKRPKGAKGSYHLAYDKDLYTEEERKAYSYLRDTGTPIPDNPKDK

[3] = test system: Streptococcus sp. 'group A'; test: Streptococcus pyogenes SK(-)GAS viability under kanamycin – luminescence, BacTiterGlo, confirmation, counter-screen for streptokinase expression inhibitor project, dose response (AID 1900); type: functional, organism-based
[4] = test system: Streptococcus; test: GAS UMAA2166 growth inhibition – luminescence, BacTiterGlo, counter-screen for streptokinase expression inhibitor project, dose response (AID 1915); type: functional, organism-based;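 further: potency for reduction of bacterial viability or growth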
[5] = molecular target: T2, Fatty acid synthase (Homo sapiens, UniProt P49327); test: inhibition of human FAS-TE enzyme activity – biochemical, kinetic fluorescence intensity, dose response (AID 624326); type: functional;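 further: rate of fluorescence rise from hydrolysis of a fluorogenic O-methyl fluorescein ester substrate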
[6] = molecular target: T2, Fatty acid synthase; test: inhibition of human FAS-TE enzyme activity – biochemical, endpoint fluorescence intensity, uHTS hits, dose response (AID 624327); type: functional;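 further: fluorescence from hydrolysis of an O-methyl fluorescein acyl ester substrate by the enzyme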
[7] = fluconazole-exposed Candida albicans growth modulators – fluorescence, retest, confirmation (AID 2467); type: functional, cell-based
[8] = NIH-3T3 fibroblast cytotoxicity, dose response, cytotoxicity control, cell-based, fluorescence, Alamar Blue, secondary assay (AID 2327); type: functional;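 further: NIH-3T3 mouse fibroblasts cultured with fluconazole at 8 µg/mL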
[9] = Luminescence Cell-Based Dose Confirmation HTS to Identify Inhibitors of Platelet Dense Granule Release. [Related pubchem assays: 1663 (Primary HTS), 1678 (Summary of Project)]; type: functional
[10] = molecular target: Luciferin 4-monooxygenase (Photinus pyralis, UniProt P08659); test: inhibition of purified Photinus pyralis luciferase – biochemical, luminescence, dose response (AID 1891)
[11] = non-specific 3'UTR reporter inhibition in Clone20-Shn3RL – cell-based, Renilla luciferase, cherry-picked, counter-screen for Shn3 inhibitor project, dose response (AID 624133); type: functional
[12] = loss of viability in HepG2 cells – cell-based, CellTiter-Glo, cherry-picked, cytotoxicity control for Shn3 inhibitor project, dose response (AID 624134); type: functional
[13] = reduction of Shn3 3'UTR-driven luciferase in osteoblasts – cell-based, Clone20 osteoblasts, firefly luciferase, cherry-picked, dose response (AID 624132); type: functional;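 further: firefly luciferase luminescence from reporter carrying the Shn3 3'UTR in osteoblasts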
[14] = molecular target: T3, Calpain-2 catalytic subunit (Sus scrofa, UniProt P43367); test: m-calpain protease blockers, concentration series – biochemical, fluorogenic peptide substrate, dose response (AID 1420); type: functional
T3 sequence (P43367 whole entry): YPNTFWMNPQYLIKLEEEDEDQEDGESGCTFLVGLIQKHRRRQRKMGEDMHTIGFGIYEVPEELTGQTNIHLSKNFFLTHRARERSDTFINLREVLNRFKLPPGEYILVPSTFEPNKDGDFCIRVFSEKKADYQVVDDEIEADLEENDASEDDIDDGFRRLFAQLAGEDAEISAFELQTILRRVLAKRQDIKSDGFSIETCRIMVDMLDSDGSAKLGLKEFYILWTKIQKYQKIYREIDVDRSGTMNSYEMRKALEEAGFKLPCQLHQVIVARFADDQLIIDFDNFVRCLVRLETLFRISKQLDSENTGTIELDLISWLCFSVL

[15] = NIH3T3 cell viability loss – ATP luminescence, mouse fibroblasts, counter-screen, dose response (AID 2010); type: functional, cell-based;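 further: cells exposed to compound for about 90 hours before reading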
[16] = Trypanosoma cruzi growth suppression in host cells – NIH3T3 host cells, beta-gal luminescence, confirmation (AID 2044); type: functional, cell-based;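 further: intracellular parasites grown in NIH/3T3 mouse fibroblasts as host cells; luminescent beta-galactosidase reporter signal from transgenic T. cruzi replicating inside host cells; inhibitors lower the luminescence signal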
[17] = molecular target: T4, Protein RecA (Mycobacterium tuberculosis, UniProt P9WHJ3); test: Fluorescence Cell-Free Homogeneous Dose Retest to Identify Inhibitors of RecA-Intein Splicing Activity. [Related pubchem assays (depositor defined):AID2097, AID2223, AID489010, AID492950]; type: functional
T4 sequence (P9WHJ3 whole entry): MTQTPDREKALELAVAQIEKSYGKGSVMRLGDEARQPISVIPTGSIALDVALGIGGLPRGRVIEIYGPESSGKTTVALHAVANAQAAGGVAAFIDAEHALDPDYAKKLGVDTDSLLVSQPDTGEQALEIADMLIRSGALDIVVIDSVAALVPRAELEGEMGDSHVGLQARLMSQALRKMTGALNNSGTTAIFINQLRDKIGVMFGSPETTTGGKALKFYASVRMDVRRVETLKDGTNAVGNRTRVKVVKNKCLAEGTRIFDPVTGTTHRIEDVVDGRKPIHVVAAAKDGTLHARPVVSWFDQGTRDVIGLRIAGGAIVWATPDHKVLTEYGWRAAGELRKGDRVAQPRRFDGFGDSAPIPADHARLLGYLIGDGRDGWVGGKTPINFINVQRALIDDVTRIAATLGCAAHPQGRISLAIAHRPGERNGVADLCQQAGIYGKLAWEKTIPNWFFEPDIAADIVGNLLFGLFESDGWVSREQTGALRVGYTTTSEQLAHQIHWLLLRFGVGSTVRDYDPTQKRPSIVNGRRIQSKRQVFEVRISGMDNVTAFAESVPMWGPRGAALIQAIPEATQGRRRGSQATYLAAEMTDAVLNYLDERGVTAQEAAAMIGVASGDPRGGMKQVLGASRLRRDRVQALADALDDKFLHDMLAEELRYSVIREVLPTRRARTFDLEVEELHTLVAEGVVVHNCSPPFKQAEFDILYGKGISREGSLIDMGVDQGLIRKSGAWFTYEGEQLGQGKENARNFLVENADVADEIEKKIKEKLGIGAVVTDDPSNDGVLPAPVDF

[18] = molecular target: T5, Replicative DNA helicase DnaB (Mycobacterium tuberculosis, UniProt P9WMR3); test: DnaB intein splicing inhibitors, dose response, biochemical, cell-free fluorescence (AID 449749); type: functional
T5 sequence (P9WMR3 whole entry): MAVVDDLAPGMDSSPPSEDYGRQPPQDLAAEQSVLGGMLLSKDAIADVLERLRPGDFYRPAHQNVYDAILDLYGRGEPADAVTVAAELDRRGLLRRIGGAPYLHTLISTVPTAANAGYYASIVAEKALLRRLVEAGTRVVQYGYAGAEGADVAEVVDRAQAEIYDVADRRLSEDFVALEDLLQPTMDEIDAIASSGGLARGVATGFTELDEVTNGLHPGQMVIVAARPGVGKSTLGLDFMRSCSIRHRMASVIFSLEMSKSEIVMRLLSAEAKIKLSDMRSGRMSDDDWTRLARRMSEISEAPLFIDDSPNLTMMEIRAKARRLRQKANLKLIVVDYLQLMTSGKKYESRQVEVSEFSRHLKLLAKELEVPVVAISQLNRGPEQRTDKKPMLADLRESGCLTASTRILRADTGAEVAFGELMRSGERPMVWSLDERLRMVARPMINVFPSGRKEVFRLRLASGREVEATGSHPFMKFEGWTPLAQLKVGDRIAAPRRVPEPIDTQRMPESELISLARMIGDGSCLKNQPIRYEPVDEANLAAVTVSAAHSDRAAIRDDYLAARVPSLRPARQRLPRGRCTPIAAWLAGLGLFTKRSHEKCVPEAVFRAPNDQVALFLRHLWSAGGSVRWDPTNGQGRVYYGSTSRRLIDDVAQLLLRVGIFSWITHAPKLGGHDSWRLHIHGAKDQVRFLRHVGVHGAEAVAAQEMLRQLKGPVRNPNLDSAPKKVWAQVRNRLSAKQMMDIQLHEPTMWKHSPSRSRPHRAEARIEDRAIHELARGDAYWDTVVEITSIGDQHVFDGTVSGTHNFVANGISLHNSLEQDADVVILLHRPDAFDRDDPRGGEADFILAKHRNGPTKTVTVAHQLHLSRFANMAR

[19] = microbe, parasite or virus in culture; type: functional; settings: Mycobacterium tuberculosis
[20] = test system: H9c2; test: cells; type: functional, cell-based; settings: Rattus norvegicus, H9c2, Myocardium;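 further: confirmatory concentration-response retest of ultra-high-throughput screening hits for modulation of myocardial damage; cell death induced by hydrogen peroxide oxidative stress; compound pretreatment for 60 min then peroxide exposure for 2 h; potency is for protecting the cells against peroxide damage rather than for killing them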
[21] = Luminescence Cell-Based Dose Response HTS to Identify Activators of Luciferase Translation or Activity in H4 […] Cells. [Related pubchem assays: 1829 (Project Summary), 1814 (Primary HTS)]; type: functional
[22] = test system: H4; test: Luminescence Cell-Based Dose Response HTS to Identify Activators of 5'UTR Stem-Loop Driven Prion Protein mRNA Translation in H4 Neuroglioblastoma Cells. [Related pubchem assays: 1829 (Project Summary), 1814 (Primary HTS)]; type: functional; settings: Homo sapiens
[23] = Luminescence Cell-Based Dose Confirmation HTS to Identify Activators of 5'UTR Stem-Loop Driven Alpha-Synuclein mRNA Translation in H4 Neuroglioblastoma Cells. [Related pubchem assays: 1829 (Project Summary), 1814 (Primary HTS)]; type: functional
[24] = cells; type: functional
[25] = blockers of HIV-1 envelope-mediated cell-cell fusion – cherry-pick, dose response (AID 652057); type: functional, cell-based

Sequence of Genome polyprotein (P29990 2492-3391 limits assumed): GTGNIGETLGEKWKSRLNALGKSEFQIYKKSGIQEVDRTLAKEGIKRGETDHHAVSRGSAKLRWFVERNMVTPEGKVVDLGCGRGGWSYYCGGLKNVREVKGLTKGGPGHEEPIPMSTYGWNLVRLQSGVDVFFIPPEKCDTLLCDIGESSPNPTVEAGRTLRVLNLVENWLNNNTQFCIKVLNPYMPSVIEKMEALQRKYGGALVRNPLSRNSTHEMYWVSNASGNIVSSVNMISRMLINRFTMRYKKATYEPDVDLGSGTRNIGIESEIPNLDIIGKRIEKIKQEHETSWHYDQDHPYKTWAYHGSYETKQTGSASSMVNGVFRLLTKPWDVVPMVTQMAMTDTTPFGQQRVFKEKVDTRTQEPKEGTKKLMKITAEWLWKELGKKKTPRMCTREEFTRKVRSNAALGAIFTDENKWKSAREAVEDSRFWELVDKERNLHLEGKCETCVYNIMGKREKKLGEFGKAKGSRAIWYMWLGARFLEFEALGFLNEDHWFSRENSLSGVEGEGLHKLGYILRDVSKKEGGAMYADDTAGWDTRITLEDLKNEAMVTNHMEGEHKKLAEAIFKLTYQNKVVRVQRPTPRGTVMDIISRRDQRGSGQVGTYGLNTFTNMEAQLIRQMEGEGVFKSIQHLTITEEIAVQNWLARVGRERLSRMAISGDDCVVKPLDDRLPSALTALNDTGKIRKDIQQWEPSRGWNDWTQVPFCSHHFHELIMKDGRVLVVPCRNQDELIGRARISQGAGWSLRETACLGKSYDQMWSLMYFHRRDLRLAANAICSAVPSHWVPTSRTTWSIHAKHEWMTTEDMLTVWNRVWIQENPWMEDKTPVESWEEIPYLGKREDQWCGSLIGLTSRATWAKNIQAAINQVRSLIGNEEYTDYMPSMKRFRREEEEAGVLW
Sequence of Luciferin 4-monooxygenase (P08659 whole entry): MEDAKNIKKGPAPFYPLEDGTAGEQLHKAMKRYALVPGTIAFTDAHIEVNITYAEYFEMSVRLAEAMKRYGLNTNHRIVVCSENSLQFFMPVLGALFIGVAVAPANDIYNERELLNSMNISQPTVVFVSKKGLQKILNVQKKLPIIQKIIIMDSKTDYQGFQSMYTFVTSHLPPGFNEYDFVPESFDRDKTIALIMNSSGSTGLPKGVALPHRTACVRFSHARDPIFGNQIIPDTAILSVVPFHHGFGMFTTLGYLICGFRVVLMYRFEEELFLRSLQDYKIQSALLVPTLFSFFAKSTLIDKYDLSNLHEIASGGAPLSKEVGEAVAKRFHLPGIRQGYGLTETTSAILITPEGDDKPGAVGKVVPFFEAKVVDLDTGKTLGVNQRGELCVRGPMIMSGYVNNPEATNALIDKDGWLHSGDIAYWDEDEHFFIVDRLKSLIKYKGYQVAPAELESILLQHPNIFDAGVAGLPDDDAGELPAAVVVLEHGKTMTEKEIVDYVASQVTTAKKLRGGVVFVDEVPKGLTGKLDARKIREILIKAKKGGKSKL
T2 sequence (P49327 whole entry): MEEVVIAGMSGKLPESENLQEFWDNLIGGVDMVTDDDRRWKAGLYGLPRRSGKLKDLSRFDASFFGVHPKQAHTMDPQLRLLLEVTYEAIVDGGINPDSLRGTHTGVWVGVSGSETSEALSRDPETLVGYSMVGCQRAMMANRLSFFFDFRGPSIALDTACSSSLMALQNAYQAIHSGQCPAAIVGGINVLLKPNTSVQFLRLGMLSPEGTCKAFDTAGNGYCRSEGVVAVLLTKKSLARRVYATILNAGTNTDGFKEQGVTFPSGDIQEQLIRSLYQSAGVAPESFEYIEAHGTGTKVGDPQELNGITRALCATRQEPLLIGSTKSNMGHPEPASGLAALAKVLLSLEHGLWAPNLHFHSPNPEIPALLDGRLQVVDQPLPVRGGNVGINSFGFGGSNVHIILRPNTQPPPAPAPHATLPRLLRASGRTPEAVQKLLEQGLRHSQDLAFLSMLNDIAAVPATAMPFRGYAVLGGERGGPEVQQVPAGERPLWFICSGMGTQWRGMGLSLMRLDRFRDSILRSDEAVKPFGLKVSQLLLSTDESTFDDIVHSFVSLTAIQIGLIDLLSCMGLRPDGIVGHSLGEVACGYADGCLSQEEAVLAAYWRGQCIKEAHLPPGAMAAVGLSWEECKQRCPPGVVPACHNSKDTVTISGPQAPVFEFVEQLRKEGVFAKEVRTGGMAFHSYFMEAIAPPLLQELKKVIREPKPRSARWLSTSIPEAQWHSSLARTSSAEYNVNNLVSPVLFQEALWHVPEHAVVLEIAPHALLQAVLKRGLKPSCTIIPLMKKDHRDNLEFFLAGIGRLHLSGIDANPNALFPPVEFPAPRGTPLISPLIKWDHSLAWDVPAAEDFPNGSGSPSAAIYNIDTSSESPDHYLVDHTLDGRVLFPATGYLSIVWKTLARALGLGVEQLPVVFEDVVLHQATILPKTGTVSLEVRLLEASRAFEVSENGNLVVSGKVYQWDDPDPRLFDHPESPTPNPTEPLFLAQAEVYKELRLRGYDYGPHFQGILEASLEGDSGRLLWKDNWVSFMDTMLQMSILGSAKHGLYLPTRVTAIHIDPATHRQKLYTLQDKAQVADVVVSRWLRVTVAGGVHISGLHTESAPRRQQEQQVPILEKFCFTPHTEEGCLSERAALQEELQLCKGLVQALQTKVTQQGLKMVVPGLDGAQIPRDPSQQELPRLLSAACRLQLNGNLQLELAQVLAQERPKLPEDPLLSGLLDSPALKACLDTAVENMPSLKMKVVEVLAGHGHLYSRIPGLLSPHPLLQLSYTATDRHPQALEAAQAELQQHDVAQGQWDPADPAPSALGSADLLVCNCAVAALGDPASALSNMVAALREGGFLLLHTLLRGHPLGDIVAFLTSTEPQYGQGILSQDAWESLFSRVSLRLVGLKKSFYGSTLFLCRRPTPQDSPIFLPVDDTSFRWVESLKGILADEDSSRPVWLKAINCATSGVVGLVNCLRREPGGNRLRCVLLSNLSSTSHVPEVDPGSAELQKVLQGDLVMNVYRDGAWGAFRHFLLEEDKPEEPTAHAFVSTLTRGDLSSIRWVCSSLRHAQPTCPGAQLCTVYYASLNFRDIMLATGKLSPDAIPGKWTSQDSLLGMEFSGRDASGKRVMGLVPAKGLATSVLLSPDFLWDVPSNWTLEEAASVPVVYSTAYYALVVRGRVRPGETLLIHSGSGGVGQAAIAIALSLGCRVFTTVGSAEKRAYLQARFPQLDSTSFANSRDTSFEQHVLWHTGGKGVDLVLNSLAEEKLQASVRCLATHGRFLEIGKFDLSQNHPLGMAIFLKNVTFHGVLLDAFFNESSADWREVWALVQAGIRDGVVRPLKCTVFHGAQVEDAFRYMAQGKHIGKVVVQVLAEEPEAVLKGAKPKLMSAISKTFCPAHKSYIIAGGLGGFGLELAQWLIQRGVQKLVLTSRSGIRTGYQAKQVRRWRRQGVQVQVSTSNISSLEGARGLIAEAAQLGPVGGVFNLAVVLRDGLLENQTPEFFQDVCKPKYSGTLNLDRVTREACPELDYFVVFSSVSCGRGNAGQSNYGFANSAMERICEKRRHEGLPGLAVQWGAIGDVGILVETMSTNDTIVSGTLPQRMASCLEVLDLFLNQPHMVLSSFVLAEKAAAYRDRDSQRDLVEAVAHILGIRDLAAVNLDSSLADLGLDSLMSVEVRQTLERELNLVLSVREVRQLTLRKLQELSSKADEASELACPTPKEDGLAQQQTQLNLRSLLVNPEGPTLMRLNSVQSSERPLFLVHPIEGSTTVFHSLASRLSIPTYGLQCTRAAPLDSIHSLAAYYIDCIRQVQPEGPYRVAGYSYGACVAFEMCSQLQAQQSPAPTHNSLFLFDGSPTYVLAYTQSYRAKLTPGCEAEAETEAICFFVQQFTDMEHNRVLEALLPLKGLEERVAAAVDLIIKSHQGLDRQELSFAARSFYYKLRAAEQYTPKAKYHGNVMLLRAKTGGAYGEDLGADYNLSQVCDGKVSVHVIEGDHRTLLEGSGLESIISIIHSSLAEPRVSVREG

COC(=O)c1sc(N2C(=O)C(O)=C(C(=O)c3ccc(C)o3)C2c2ccc([N+](=O)[O-])cc2)nc1C (centres undefined)
IC50 [1]: 38.5 µM (active) | EC50 [2]: > 150 µM (not active) | EC50 [3]: 4.55 µM (active) | EC50 [4]: 6.86 µM (active)

O=C(COc1ncnc2cc([N+](=O)[O-])ccc12)N(CCc1ccccc1)Cc1ccccc1
IC50 [5]: 22.2 µM (inactive) | IC50 [6]: 5.94 µM (active)

O=C(COc1ccc([N+](=O)[O-])cc1)NNC(=S)NC(=O)c1ccc(Br)cc1
EC50 [7]: 3.09 µM (active) | EC50 [8]: > 150 µM (inactive)

O=C(NC1CCCCC1)C12CC3CC(CC(Cl)(C3)C1)C2
EC50 [9]: > 112 µM (not active) | EC50 [10]: > 112 µM (not active)

O[C@@H]1CN(Cc2ccc(-n3cccn3)cc2)CC[C@H]1N1CCN(c2ccccc2F)CC1
AC50 [11]: 2.39 µM (active) | AC50 [12]: 68 µM (active) | AC50 [13]: 2.13 µM (active)

CCN(CC(O)Cn1c2ccccc2c2ccccc21)S(=O)(=O)c1ccc(F)cc1 (centres undefined)
IC50 [14]: 6.55 µM (not active)

CC(C)(C)OC(=O)Nc1ncnc2c1ncn2C1OC(CO)C2OC(C)(C)OC21 (centres undefined)
EC50 [9]: > 112 µM (not active) | EC50 [10]: > 112 µM (not active)

CCN(C(=O)CSc1nnc(C)n1-c1ccccc1)C1CCS(=O)(=O)C1 (centres undefined)
EC50 [9]: > 112 µM (not active) | EC50 [10]: > 112 µM (not active)

C=C(C)[C@@H]1C2=CC(C(=O)OC)=C(C[C@H](C(=C)C)[C@H]3O[C@H]3C3=C[C@H]1OC3=O)O2
AC50 [11]: 5.23 µM (active) | AC50 [12]: 13.3 µM (active) | AC50 [13]: 8.16 µM (active)

Cc1ccc(-c2nc3c(c(=O)[nH]c(=O)n3CC(C)C)n2CC(C)C)cc1[N+](=O)[O-]
EC50 [15]: > 30 µM (not active) | EC50 [16]: 1.41 µM (active) | IC50 [14]: 16.1 µM (not active)

CC(=O)c1cnc2cc(-c3cccc(Br)c3)nn2c1C
EC50 [7]: > 38 µM (not active) | EC50 [8]: > 150 µM (inconclusive)

O=C(O)/C=C/C(=O)Nc1ccc(C2(c3ccc(NC(=O)/C=C/C(=O)O)cc3)c3ccccc3-c3ccccc32)cc1
IC50 [1]: 18.1 µM (active) | EC50 [17]: 2.88 µM (active) | AC50 [18]: 13.3 µM (active)

CCCCNC(=S)N/N=C/c1ccccc1F
IC50 [14]: 5.17 µM (active)

O=C(CSc1nc(Nc2ccccc2)nc(N2CCOCC2)n1)Nc1cc(Cl)ccc1O
CC50 [19]: 17 µM (active) | EC50 [2]: 30.7 µM (active) | EC50 [3]: 6.55 µM (active) | EC50 [4]: 18.5 µM (active)

Cn1c(NN)nc2sc3c(c2c1=O)CCC3
EC50 [8]: > 150 µM (inactive)

CCOC(=O)CNS(=O)(=O)c1cc(-c2nnc(O)c3ccccc23)ccc1C
EC50 [9]: 7.49 µM (active) | IC50 [20]: > 79 µM (inactive) | EC50 [10]: > 112 µM (not active)

CCCCn1c(-c2ccc(C(C)(C)C)cc2)nc2cc3nc(O)c(C(C)C)nc3cc21
CC50 [19]: 32.7 µM (active)

Cc1ccc(SCC(=O)OC(C)C(=O)NCc2ccccc2)cc1 (centres undefined)
EC50 [9]: > 112 µM (not active) | EC50 [10]: > 112 µM (not active)

NC1=NC2(CCC(c3ccccc3)CC2)n2c(nc3ccccc32)N1 (centres undefined)
CC50 [19]: 29.3 µM (active)

COc1ccc(C(=O)/C=C/Sc2nc3ccccc3o2)cc1
EC50 [17]: 54.4 µM (active) | EC50 [21]: 96.7 µM (active) | EC50 [22]: 14.5 µM (active) | CC50 [19]: 32.4 µM (active) | EC50 [23]: 17.4 µM (active) | AC50 [18]: > 380 µM (inactive)

CCCc1nc2[nH]c(C)c(NS(=O)(=O)c3ccc(C4CCCCC4)cc3)c(=O)n2n1
IC50 [1]: 61.1 µM (active)

O=C(NCc1ccccc1Cl)C1CCCN(c2nc3ccsc3c(=O)s2)C1 (centres undefined)
IC50 [14]: 15.9 µM (not active)

Cc1ccc(C(C2C(=O)CC(C)(C)CC2=O)C2C(=O)CC(C)(C)CC2=O)s1
IC50 [1]: 46.4 µM (active)

COc1ccc(C(=O)NN=C(C)/C=C(\O)c2ccccc2)cc1
IC50 [24]: > 50 µM (active)

COc1ccc(/C=C2\C(=O)ON=C2c2ccccc2)cc1OC
IC50 [1]: 95.4 µM (active)

COc1ccc([Si](C)(C)[C@H]2[C@H](CCO)O[C@@]3(C(=O)N(Cc4cccc(N5CCOC5=O)c4)c4ccccc43)[C@@H]2C)cc1
AC50 [25]: 17.3 µM (active)
